Test results from patent US20250368687A1, “SHORT SYNTHETIC PEPTIDES AND USES THEREOF IN THE TREATMENT OF ENTEROVIRUS INFECTION” (CITY UNIVERSITY OF HONG KONG, priority 2024, published 2025).

Columns and labels:
Assay type in all cases: cell-based
EV-A71 VP1 = experiment: Western blot of EV-A71 VP1 level in RD cells; details: for reduction of VP1 level (densitometric assay): 50 μM; for EV-A71 VP1 protein level (in words): indicated concentrations
Description: (§1) FIGS. 10A-10K. Peptide S78 inhibited EV-A71 replication and propagation. (FIG. 10A) RD cells were pre-treated with peptides S78 or for 2 hours and infected with EV-A71 at the MOI of 10 for 6 hours. Cell lysates were collected for western blot assay. Hsp27 phosphorylation on Ser 15, 78, 82 were detected by specific antibodies. β-Actin were detected as internal control. (FIG. 10B) Densitometric analysis of FIG. 9A. (FIG. 10C) HEK 293T cells were pre-treated with peptides S78 or S78A at the concentration of 25 μM for 2 hours and then co-transfected with Hsp27-WT plasmid (800 ng), pIRES reporter plasmid (200 ng) and 2A^pro-expressing plasmid or 2AC110A-expressing plasmid (200 ng) for 24 h, then the luciferase activity was measured. (FIG. 10D-10E) RD cells were treated with peptides S78 or S78A and then infected with EV-A71. EV-A71 VP1 were detected. (FIG. 10F) RD cells were treated with peptides and then infected with EV-A71 at the MOI of 1 for 12 hours. The EV-A71-induced CPE was captured. (FIG. 10G-10H) Intracellular viral RNA was extracted and quantified by qPCR. (FIG. 10I) Densitometric analysis FIG. 9D-E. (FIG. 10J) RD cells were treated with peptides S78 or and then infected with EV-A71 at the MOI of 1 for 12 hours. Extracellular viral RNA was extracted and quantified by qPCR. (FIG. 10K) Viral titration was calculated by TCID50. The Statistical analyses were carried out using Student's t-test. *: p<0.05, **: p<0.01, ***: p<0.001. Data are expressed as mean ±SD.
FIGS. 11A-11G Inhibition of EV-A71 Protein Translation and Viral Reproduction by peptide S82A. (FIG. 11A) HEK 293T cells were pre-treated with peptides NC, S78, S78A, S82A, or S78-3A at the concentration of 25 μM for 2 hours and then co-transfected with Hsp27-WT plasmid (800 ng), pIRES reporter plasmid (200 ng) and 2A^pro-expressing plasmid for 24 h, then the luciferase activity was measured. (FIG. 11B) RD cells were pre-treated with peptides NC at indicated concentrations for 2 hours and infected with EV-A71 at the MOI of 1 for 9 hours. Intracellular viral RNA was extracted and quantified by qPCR. (FIG. 11C-11E) RD cells were treated with peptides NC, S82A, or S78-3A at indicated concentrations for 2 hours and then infected with EV-A71 at the MOI of 1 for 9 hours. Cell lysates were collected for western blot assay. EV-A71 VP1 were detected. β-Actin was detected as an internal control. (FIG. 11F) Densitometric analysis of the EV-A71 VP1 level in FIG. S7C-E was quantified and normalized with β-Actin using ImageJ. (FIG. 11G) RD cells were treated with peptides S78, S78A, S82A, or S78-3A at the concentration of 25 μM for 2 hours and then infected with EV-A71 at the MOI of 0.1 for 24 hours. Viral titration was calculated. The Statistical analyses were carried out using Student's t-test. *: p<0.05, **: p<0.01, ***: p<0.001. Data are expressed as mean ±SD.
After cell lysis in Nonidet-P40 (NP-40) buffer, the cell lysates were centrifuged, and the concentration was determined by Bradford assay (Bio-Rad). 20 μg of protein was used for 12% SDS-PAGE and transferred onto polyvinylidene fluoride membrane (PVDF) (GE, MA, USA). Following 5% bovine serum albumin (BSA) blocking for 1 hrs, the membrane was incubated with antibodies (1:1000) against Hsp27 (sc-13132), pHsp27-Ser15 (ab76313), pHsp27-Ser78 (ADI-SPA-523), pHsp27-Ser82 (ab155987), VP1 (GTX132339), β-Actin (sc-47778), hnRNP A1 (sc-32301), or GAPDH (sc-32233) overnight in 4° C. After secondary antibodies (HRP-conjugated Affinipure Goat Anti-Mouse IgG(H+L), SA00001-1, and HRP-conjugated Affinipure Goat Anti-Rabbit IgG(H+L), SA00001-2) incubation for 1 hrs, the protein was visualized with a chemiluminescence reagent (PerkinElmer, MA, USA) on Bio-Rad Chemidoc Imaging System. The protein bands were quantified by densitometry with ImageJ if necessary.

RD cells = experiment: CCK-8 assay; details: data not shown
Description: (§2) RD cells were seeded in 96-well cell plates (1×10^4/well) and placed in the 5% CO2 incubator for 1 day. Then the cells were treated with peptides for 2 days. 90 μl medium and 10 μl of CCK-8 (BioSharp, BS350B) was added to each well of the 96-well plate, which were incubated at 37° C. for 1 h. A microplate reader (BioTek, Synergy H1) was used to measure the OD value of each well at 450 nm.

EV-A71 = experiment: Virus titration (TCID50); details: 25 μM for 2 hours, EV-A71 MOI 0.1 for 24 hours, RD cells (FIG. 11G)
Description: as §1, with “The Statistical analyses were carried out using Student's t-test. *: p<0.05, **: p<0.01, ***: p<0.001.” left out
FIGS. 11A-11G Inhibition of EV-A71 Protein Translation and Viral Reproduction by peptide S82A. (FIG. 11A) HEK 293T cells were pre-treated with peptides NC, S78, S78A, S82A, or S78-3A at the concentration of 25 μM for 2 hours and then co-transfected with Hsp27-WT plasmid (800 ng), pIRES reporter plasmid (200 ng) and 2A^pro-expressing plasmid for 24 h, then the luciferase activity was measured. […] Intracellular viral RNA was extracted and quantified by qPCR. […] EV-A71 VP1 were detected. β-Actin was detected as an internal control. (FIG. 11F) Densitometric analysis of the EV-A71 VP1 level in FIG. S7C-E was quantified and normalized with β-Actin using ImageJ. […] Viral titration was calculated. […] Data are expressed as mean ±SD. […]

[1] = test system: Hsp27 and hnRNP A1 redistribution in RD cells; experiment: Immunofluorescence colocalization assay of Hsp27/hnRNP A1 redistribution, RD cells with or without EV-A71 infection; details: 25 μM for 2h; for redistribution of Hsp27 and hnRNP A1 in EV-A71-infected RD cells: EV-A71 MOI 40 for 6h
Description: (§3) The cells on coverslips were infected with EV-A71 at the multiplicity of infection (MOI) of 40 for 6 hrs to assure the high efficiency of viral infection. Then the cells were fixed by 4% paraformaldehyde for 20 min, permeabilized by 0.5% Triton X-100 for 15 min, blocked with 5% BSA for 2 hrs, and stained by incubation with anti-Hsp27 (GTX101145) and anti-hnRNP A1 (sc-32301) antibody, then with Alexa Fluor 488 conjugated anti-rabbit antibody and Alexa Fluor 594 conjugated anti-mouse antibody respectively. After washing four times with 0.2% Triton X-100, the nuclei were stained with DAPI or Hoechst for 5 min. The images were captured by a Nikon A1HD25 High speed and Large Field of View Confocal Microscope. Colocalization analysis was conducted using the JACoP-plugin of the extended ImageJ version Fiji. The M1 colocalization coefficient was computed to illustrate the colocalization levels of Hsp27 and hnRNP A1 overlapped with Hoechst.
Hsp27 is predominantly located in the cytoplasm, however, stress (e.g., heat shock, virus infection) can induce partial redistribution of Hsp27 from the cytoplasm to the nucleus, concomitantly with its phosphorylation. We thus postulated that the cellular redistribution of Hsp27 may be associated with its phosphorylation upon EV-A71 infection. To verify the hypothesis, RD cells were with SB203580 at 0, 2, 4, and 8 μM for 2 h, and the cells were infected with EV-A71 for 6 h. […] The colocalization of Hsp27 and DAPI, which stands for the level of redistribution of Hsp27, was also quantified. The colocalization coefficient M1 was computed as the fraction of Hsp27 colocalized with DAPI in the total Hsp27 area using the JACoP-plugin in FIJI.
We hypothesized that peptides S78 and S82A could interfere with Ser78 phosphorylation while peptides S78A (Ser78 replaced by Ala78) would not affect the phosphorylation of Ser78 of Hsp27. […] RD cells were pre-treated with peptide S78, S78A or S82A at the concentrations of 25 μM for 2h and then infected with or without EV-A71 at an MOI of 40 for 6h.

EV-A71 IRES activity = experiment: Dual-luciferase IRES reporter assay in HEK 293T cells pre-treated with peptides; details: 25 μM for 2 hours, 24 h (FIG. 11A)
Description: as §1
FIGS. 11A-11G Inhibition of EV-A71 Protein Translation and Viral Reproduction by peptide S82A. (FIG. 11A) HEK 293T cells were pre-treated with peptides NC, S78, S78A, S82A, or S78-3A at the concentration of 25 μM for 2 hours and then co-transfected with Hsp27-WT plasmid (800 ng), pIRES reporter plasmid (200 ng) and 2A^pro-expressing plasmid for 24 h, then the luciferase activity was measured. (FIG. 11B) RD cells were pre-treated with peptides NC at indicated concentrations for 2 hours and infected with EV-A71 at the MOI of 1 for 9 hours. Intracellular viral RNA was extracted and quantified by qPCR. […] EV-A71 VP1 were detected. β-Actin was detected as an internal control. (FIG. 11F) Densitometric analysis of the EV-A71 VP1 level in FIG. S7C-E was quantified and normalized with β-Actin using ImageJ. […] Viral titration was calculated. […] Data are expressed as mean ±SD.
HEK 293T cells were seeded in 24-wells, and then co-transfected with plasmids to simultaneously express 2A^pro (200 ng), pIRES reporter (200 ng), and the wild-type Hsp27 or its mutants (800 ng). […] The Renilla luciferase (RLuc) and Firefly luciferase (FLuc) activity were determined by using a dual-luciferase reporter assay (Promega) according to the manufacturer's instructions in a Lumat LB9507 bioluminometer.

CCK-8 assay = details: human; RD cells, data not shown
Description: as §2

[2] = test system: 2Apro-induced relocalization of Hsp27 and hnRNP A1 in RD cells; experiment: Immunofluorescence colocalization assay of 2Apro-induced relocalization of Hsp27 and hnRNP A1; details: 25 μM for 2 hours, transfected with 2Apro for 24 hours
Description: FIGS. 9A-9B Peptide S78 blocks the 2A^pro-induced relocalization of Hsp27 and hnRNP A1. RD cells on the coverslips were treated with peptides (S78, S78A, and S82A) at the concentration of 25 μM for 2 hours, and then transfected with 2A^pro for 24 hours. The cells were fixed and stained with anti-Hsp27and anti-hnRNPAI, followed by Alexa Fluor 488-conjugated anti-rabbit antibody and Alexa Fluor 594-conjugated anti-mouse antibody. The nuclei were stained with Hoechst. The images were captured by Nikon A1HD25 Confocal Microscope. The JACoP-plugin of the extended ImageJ version Fiji was used to compute the M1 colocalization coefficient, in which (FIG. 9A) is M1 colocalization coefficient for the fraction of Hsp27 in Hoechst and (FIG. 9B) is the M1 colocalization coefficient for the fraction of hnRNP A1 in Hoechst. Statistical analyses were carried out using Student's t-test. *: p<0.05, **: p<0.01, ***: p<0.001. Data are expressed as mean ±SD.
as §3

| Substance | reduction of VP1 level (densitometric assay) (EV-A71 VP1) | EV-A71 VP1 protein level (in words) (EV-A71 VP1) | CC50 (in words) (RD cells) | effect on viral titer (in words) (EV-A71) | redistribution of Hsp27 and hnRNP A1 in EV-A71-infected RD cells [1] | effect on viral IRES activity (in words) (EV-A71 IRES activity) | CC50 at 2 days (CCK-8 assay) [µM] | 2Apro-induced relocalization of Hsp27 and hnRNP A1 [2] | localization of Hsp27 and hnRNP A1 in mock RD cells ([1]; without EV-A71) |
| --- | --- | --- | --- | --- | --- | --- | --- | --- | --- |
| Ac-RKKRRQRRRAYSRAAAAQLSS-NH2 [S78-3A] | about 60% | much weaker | high | mildly decreased | partially suppressed | mildly decreased |  |  |  |
| Ac-RKKRRQRRRAYSRALSRQLAS-NH2 [S82A] | > 90% | a little bit weaker inhibition |  |  | dramatically blocked |  | > 600 | almost completely blocked | not affected |
